US10059713B2 (Takeda Pharmaceutical Company Limited, priority 2014, dated 2018)

What follows are compounds tested against human GPR43 (Homo sapiens (Human), UniProt O15552) (assay: Ca-Flux functional assay: determination of agonist/positive allosteric modulator (PAM) activity). Details: CHO-K1 Gα16 cells stably expressing human GPR43; compound added with EC20 sodium acetate; intracellular Ca2+ by FLIPR; does not distinguish agonist from PAM.
Sequence of human GPR43 (O15552 whole entry): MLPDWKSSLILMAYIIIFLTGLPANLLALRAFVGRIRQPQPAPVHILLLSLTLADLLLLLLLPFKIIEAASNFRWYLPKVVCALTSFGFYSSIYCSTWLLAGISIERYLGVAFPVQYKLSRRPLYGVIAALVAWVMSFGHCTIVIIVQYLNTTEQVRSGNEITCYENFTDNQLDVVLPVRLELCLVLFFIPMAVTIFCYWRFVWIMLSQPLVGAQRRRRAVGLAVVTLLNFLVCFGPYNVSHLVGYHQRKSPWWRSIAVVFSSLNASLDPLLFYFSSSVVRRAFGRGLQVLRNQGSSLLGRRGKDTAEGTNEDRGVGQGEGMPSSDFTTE
Format: cell-based
Summary of the method: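 CHO-K1 Gα16 cells stably expressing human GPR43, loaded with Calcium 5 dye 1 h; compounds (10-point half-log from 10 μM) added with sodium acetate at EC20. FLIPR calcium signal gave EC50, two wells per point; agonists and PAMs not distinguished.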
An EC50 of 0.003 µM was found for `Cc1nc(N2CCOC(C)(C)C2)c2[nH]c(N)c(S(=O)(=O)c3cccc(F)c3F)c2n1` [Example 280, 7-(2,3-difluorobenzenesulfonyl)-4-(2,2-dimethylmorpholin-4-yl)-2-methyl-5H-pyrrolo[3,2-d]pyrimidin-6-amine] in this work. An EC50 of 0.043 µM was found for `Nc1[nH]c2c(C3CCCCC3)ncnc2c1S(=O)(=O)c1ccccc1` [Example 3, 7-(benzenesulfonyl)-4-cyclohexyl-5H-pyrrolo[3,2-d]pyrimidin-6-amine] in this work. An EC50 of 0.006 µM was found for `Cc1nc(N2CCOC3(CCCC3)C2)c2[nH]c(N)c(S(=O)(=O)c3ccccc3F)c2n1` [Example 177, 7-(2-fluorobenzenesulfonyl)-2-methyl-4-{6-oxa-9-azaspiro[4.5]decan-9-yl}-5H-pyrrolo[3,2-d]pyrimidin-6-amine] in this work. An EC50 of 1.21 µM was found for `COCC1CN(c2ncnc3c(S(=O)(=O)c4ccccc4)c(N)[nH]c23)CCO1` (stereo not shown) [Example 81, 7-(benzenesulfonyl)-4-[2-(methoxymethyl)morpholin-4-yl]-5H-pyrrolo[3,2-d]pyrimidin-6-amine] in this work. An EC50 of 0.019 µM was found for `CC1CN(c2ncnc3c(S(=O)(=O)c4ccccc4)c(N)[nH]c23)C(C)CO1` (stereo not shown) [Example 85, 7-(benzenesulfonyl)-4-(2,5-dimethylmorpholin-4-yl)-5H-pyrrolo[3,2-d]pyrimidin-6-amine] in this work. An EC50 of 0.069 µM was found for `CC1(C)CN(c2nncc3c(S(=O)(=O)c4ccccc4F)c(N)[nH]c23)CCO1` [Example 234, 7-(2,2-dimethylmorpholin-4-yl)-3-(2-fluorobenzenesulfonyl)-1H-pyrrolo[2,3-d]pyridazin-2-amine] in this work. An EC50 of 0.057 µM was found for `CC1CCN(c2ncnc3c(S(=O)(=O)c4ccccc4)c(N)[nH]c23)CC1` [Example 59, 7-(benzenesulfonyl)-4-(4-methylpiperidin-1-yl)-5H-pyrrolo[3,2-d]pyrimidin-6-amine] in this work. An EC50 of 0.256 µM was found for `Nc1[nH]c2c(C3CCCCC3)nncc2c1S(=O)(=O)c1ccccc1` [Example 228, 3-(benzenesulfonyl)-7-cyclohexyl-1H-pyrrolo[2,3-d]pyridazin-2-amine] in this work. An EC50 of 0.001 µM was found for `Cc1nc(N2CCO[C@@H](C(F)(F)F)C2)c2[nH]c(N)c(S(=O)(=O)c3ccccc3F)c2n1` [Example 289, 7-(2-fluorobenzenesulfonyl)-2-methyl-4-[(2R)-2-(trifluoromethyl)morpholin-4-yl]-5H-pyrrolo[3,2-d]pyrimidin-6-amine] in this work. An EC50 of 0.134 µM was found for `Nc1[nH]c2c(OCc3ccccc3)ncnc2c1S(=O)(=O)c1ccccc1` [Example 168, 7-(benzenesulfonyl)-4-(benzyloxy)-5H-pyrrolo[3,2-d]pyrimidin-6-amine] in this work. An EC50 of 3.47 µM was found for `Nc1[nH]c2c(C3=CCCCC3)ncnc2c1S(=O)(=O)C1CCOCC1` [Example 61, 4-(cyclohex-1-en-1-yl)-7-(oxane-4-sulfonyl)-5H-pyrrolo[3,2-d]pyrimidin-6-amine] in this work. An EC50 of 0.003 µM was found for `Cc1nc(N2CCOC(CF)C2)c2[nH]c(N)c(S(=O)(=O)c3ccccc3F)c2n1` (stereo not shown) [Example 266, 7-(2-fluorobenzenesulfonyl)-4-[2-(fluoromethyl)morpholin-4-yl]-2-methyl-5H-pyrrolo[3,2-d]pyrimidin-6-amine] in this work. An EC50 of 0.019 µM was found for `Nc1[nH]c2c(N3CCC(F)(F)CC3)ncnc2c1S(=O)(=O)c1ccccc1` [Example 24, 7-(benzenesulfonyl)-4-(4,4-difluoropiperidin-1-yl)-5H-pyrrolo[3,2-d]pyrimidin-6-amine] in this work. An EC50 of 0.037 µM was found for `CCc1nc(C2=CCCCC2)c2[nH]c(N)c(S(=O)(=O)c3ccccc3)c2n1` [Example 41, 7-(benzenesulfonyl)-4-(cyclohex-1-en-1-yl)-2-ethyl-5H-pyrrolo[3,2-d]pyrimidin-6-amine] in this work. An EC50 of 0.011 µM was found for `Nc1[nH]c2c(C3CCCCC3)ncnc2c1S(=O)(=O)c1ccccc1F` [Example 89, 4-cyclohexyl-7-(2-fluorobenzenesulfonyl)-5H-pyrrolo[3,2-d]pyrimidin-6-amine] in this work. An EC50 of 0.025 µM was found for `CC(Oc1ncnc2c(S(=O)(=O)c3ccccc3)c(N)[nH]c12)c1ccccc1` (stereo not shown) [Example 164, 7-(benzenesulfonyl)-4-(1-phenylethoxy)-5H-pyrrolo[3,2-d]pyrimidin-6-amine] in this work.
